According to ChEMBL document CHEMBL4325925, “Privileged Structures and Polypharmacology within and between Protein Families” (ACS Med Chem Lett, 2018):

How the values were obtained:
[1] = molecular target: T1, Pirin (Homo sapiens, UniProt O00625); test: Displacement of 6-amino-9-(2-((4-((2-((6-((5-(2,3-dihydrobenzo[b][1,4]dioxine-6-carboxamido)-2-methylphenyl)carbamoyl)quinolin-2-yl)oxy)ethyl)amino)-4-oxobutyl)(methyl)carbamoyl)phenyl)-3-imino-3H-xanthene-4,5-disulfonic acid from pirin (unknown origin) by fluorescence polarization assay
T1 sequence (O00625 whole entry): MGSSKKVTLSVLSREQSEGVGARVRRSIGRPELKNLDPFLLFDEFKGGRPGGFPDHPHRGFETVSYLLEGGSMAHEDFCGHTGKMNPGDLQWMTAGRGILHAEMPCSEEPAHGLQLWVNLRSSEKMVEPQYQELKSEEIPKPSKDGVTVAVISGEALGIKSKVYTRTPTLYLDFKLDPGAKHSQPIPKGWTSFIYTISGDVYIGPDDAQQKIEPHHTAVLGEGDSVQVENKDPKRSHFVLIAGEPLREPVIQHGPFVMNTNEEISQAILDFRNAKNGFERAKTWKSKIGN

[2] = molecular target: Serine/threonine-protein kinase B-raf (Homo sapiens, UniProt P15056, V600E); test: Inhibition of recombinant human GST-tagged BRAF V600E mutant expressed in baculovirus expression system
[3] = molecular target: Serine/threonine-protein kinase B-raf (Homo sapiens, UniProt P15056); test: Inhibition of recombinant human full length GST-tagged BRAF expressed in baculovirus expression system
[4] = molecular target: Homeodomain-interacting protein kinase 2 (Homo sapiens, UniProt Q9H2X6); test: Inhibition recombinant human HIPK2 (165 to 564 residues) after 5 mins in presence of [33P] ATP by Topcount method
[5] = molecular target: T2, Serine/threonine-protein kinase TAO1 (Homo sapiens, UniProt Q7L7X3); test: Inhibition recombinant human TAOK1 (1 to 356 residues) after 5 mins in presence of [33P] ATP by Topcount method
T2 sequence (Q7L7X3 whole entry): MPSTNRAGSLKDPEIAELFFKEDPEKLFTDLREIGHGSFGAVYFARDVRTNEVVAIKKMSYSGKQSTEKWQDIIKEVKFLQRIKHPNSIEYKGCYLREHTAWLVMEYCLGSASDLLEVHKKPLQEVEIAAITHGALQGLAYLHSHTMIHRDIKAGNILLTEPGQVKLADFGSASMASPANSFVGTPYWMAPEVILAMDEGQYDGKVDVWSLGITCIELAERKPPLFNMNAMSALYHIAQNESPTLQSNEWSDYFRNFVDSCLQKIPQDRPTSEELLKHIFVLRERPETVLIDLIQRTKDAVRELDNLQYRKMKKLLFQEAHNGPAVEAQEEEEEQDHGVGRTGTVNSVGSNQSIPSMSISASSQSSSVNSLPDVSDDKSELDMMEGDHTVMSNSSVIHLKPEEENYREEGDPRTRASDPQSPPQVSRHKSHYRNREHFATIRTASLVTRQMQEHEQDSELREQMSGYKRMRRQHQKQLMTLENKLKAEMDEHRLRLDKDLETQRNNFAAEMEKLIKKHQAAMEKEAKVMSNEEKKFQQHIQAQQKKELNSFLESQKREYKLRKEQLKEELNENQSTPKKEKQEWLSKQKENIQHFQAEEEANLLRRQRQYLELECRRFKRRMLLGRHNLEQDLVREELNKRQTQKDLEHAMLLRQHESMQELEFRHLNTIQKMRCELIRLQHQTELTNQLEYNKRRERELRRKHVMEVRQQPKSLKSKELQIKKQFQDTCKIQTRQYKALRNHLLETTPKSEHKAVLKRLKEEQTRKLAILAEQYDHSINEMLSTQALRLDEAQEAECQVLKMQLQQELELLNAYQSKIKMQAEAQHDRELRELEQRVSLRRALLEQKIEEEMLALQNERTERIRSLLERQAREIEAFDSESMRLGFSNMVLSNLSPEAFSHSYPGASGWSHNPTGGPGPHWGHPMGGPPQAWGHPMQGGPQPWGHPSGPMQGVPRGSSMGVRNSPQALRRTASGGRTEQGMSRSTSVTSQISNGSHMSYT

Chain of Serine/threonine-protein kinase B-raf (Homo sapiens, UniProt P15056) (P15056 whole entry, the tested form may be a part): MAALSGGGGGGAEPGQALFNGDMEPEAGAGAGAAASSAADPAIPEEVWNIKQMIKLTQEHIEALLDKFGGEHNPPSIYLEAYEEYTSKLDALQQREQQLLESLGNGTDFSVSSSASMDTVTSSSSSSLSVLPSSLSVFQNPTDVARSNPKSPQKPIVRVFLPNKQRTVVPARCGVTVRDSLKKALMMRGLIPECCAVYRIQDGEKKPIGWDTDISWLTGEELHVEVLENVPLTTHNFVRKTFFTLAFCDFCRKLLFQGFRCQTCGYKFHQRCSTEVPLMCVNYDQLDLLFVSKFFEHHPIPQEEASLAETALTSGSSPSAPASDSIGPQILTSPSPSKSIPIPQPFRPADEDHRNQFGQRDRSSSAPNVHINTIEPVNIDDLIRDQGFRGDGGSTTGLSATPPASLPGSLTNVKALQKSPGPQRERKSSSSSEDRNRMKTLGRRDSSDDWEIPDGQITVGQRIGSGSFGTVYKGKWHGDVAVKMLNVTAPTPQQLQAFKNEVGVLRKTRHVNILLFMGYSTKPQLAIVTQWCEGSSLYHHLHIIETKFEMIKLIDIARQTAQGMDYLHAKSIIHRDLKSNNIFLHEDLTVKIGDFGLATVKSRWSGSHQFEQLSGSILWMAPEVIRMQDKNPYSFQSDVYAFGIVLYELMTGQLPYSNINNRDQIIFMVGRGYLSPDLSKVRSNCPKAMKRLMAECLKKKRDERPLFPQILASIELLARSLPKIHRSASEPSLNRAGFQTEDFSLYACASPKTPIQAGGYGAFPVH
Chain of Homeodomain-interacting protein kinase 2 (Q9H2X6 whole entry, the tested form may be a part): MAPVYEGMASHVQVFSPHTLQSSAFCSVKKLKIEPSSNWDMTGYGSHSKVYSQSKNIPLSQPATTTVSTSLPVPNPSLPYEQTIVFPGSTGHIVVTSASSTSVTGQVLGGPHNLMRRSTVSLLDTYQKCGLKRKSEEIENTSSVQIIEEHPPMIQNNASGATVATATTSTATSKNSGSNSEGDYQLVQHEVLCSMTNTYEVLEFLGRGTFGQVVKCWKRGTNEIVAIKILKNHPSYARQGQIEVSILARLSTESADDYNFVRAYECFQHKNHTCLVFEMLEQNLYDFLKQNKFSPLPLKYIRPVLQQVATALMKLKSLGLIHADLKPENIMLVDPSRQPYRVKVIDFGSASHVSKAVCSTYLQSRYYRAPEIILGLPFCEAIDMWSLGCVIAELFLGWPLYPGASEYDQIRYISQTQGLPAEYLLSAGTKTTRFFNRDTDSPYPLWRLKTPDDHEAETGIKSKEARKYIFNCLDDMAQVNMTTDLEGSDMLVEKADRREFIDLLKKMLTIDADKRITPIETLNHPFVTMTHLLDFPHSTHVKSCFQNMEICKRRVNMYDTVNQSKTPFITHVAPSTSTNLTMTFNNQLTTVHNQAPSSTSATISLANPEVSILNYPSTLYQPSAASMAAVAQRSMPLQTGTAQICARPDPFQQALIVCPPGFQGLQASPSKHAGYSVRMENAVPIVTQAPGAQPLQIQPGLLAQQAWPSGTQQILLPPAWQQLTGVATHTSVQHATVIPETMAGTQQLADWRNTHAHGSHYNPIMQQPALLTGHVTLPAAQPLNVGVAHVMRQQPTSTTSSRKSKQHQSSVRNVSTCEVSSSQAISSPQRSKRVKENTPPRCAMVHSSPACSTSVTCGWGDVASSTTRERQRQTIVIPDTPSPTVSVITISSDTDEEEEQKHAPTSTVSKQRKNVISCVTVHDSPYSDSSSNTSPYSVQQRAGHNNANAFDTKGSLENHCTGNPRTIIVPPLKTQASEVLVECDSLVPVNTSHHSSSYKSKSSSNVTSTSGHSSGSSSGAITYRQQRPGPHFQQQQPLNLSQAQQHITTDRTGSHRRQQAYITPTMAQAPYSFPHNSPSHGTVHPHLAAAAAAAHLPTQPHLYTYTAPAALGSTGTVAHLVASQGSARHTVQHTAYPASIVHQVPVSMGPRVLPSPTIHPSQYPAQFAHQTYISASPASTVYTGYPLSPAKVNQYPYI
Chain of Serine/threonine-protein kinase B-raf (Homo sapiens, UniProt P15056, V600E) (P15056 2-766 V600E limits assumed): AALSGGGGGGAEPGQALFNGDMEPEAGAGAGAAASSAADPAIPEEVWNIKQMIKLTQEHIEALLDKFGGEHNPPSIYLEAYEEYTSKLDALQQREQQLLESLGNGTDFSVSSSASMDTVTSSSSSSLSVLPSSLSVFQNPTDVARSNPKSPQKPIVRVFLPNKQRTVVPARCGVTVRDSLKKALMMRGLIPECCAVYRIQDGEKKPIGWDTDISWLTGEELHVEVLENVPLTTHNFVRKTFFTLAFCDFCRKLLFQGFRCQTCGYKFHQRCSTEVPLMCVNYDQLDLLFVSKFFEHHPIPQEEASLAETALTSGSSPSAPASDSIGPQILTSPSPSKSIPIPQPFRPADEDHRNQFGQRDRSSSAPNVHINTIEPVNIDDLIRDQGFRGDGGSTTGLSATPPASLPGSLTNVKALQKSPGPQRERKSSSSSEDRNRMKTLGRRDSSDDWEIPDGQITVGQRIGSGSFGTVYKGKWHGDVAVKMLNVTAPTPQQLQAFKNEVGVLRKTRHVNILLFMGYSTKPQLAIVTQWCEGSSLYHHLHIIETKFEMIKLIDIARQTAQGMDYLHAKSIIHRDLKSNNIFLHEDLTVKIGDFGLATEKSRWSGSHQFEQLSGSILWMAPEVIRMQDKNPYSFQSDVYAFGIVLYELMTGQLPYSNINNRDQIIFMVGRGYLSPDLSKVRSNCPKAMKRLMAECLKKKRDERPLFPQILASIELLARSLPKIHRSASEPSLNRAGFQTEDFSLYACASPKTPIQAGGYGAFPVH

Compound	IC50 [1] [nM]	further results
Cc1ccc(NC(=O)c2cccc(C(C)(C)C#N)c2)cc1Nc1ccc2ncn(C)c(=O)c2c1	> 10000	
N#Cc1c(Oc2ccc(F)c(NC(=O)Cc3cccc(C(F)(F)F)c3)c2)ccc2nc(NC(=O)C3CC3)sc12	> 10000	IC50 [2]: 2 nM; IC50 [3]: 8 nM
c1cnc2ncn(-c3cc(Nc4ccc(OCCN5CCCCC5)cn4)ncn3)c2c1		IC50 [4]: 30 nM; IC50 [5]: 490 nM
CC(C)(C)N1CCN(Cc2ccc3cc(C(=O)Nc4cc(NC(=O)c5ccc6c(c5)OCCO6)ccc4Cl)ccc3n2)CC1	33	IC50 [3]: > 10000 nM
OCCn1cc(-c2ccc3c(c2)CC/C3=N\O)c(-c2ccncc2)n1	> 10000	
CC(C)(C)c1nc(-c2cccc(NS(=O)(=O)c3c(F)cccc3F)c2F)c(-c2ccnc(N)n2)s1 [DABRAFENIB]	> 10000	
CCCS(=O)(=O)Nc1ccc(F)c(C(=O)c2c[nH]c3ncc(Cl)cc23)c1F [PLX-4720]	670	
Cn1c(Nc2ccc(C(F)(F)F)cc2)nc2cc(Oc3ccnc(-c4ncc(C(F)(F)F)[nH]4)c3)ccc21 [RAF-265]	> 10000	
